Reference: patent US11213031B2, “Tetrazolylpropyl derivatives and their use as fungicides” (BAYER AKTIENGESELLSCHAFT, priority 2017, dated 2022)

Assay: Log P by HPLC on reversed phase columns (EEC directive 79/831 Annex V.A8)
Type: physicochemical
Description: Measurement of Log P values was performed according to EEC directive 79/831 Annex V.A8 by HPLC (High Performance Liquid Chromatography) on reversed phase columns with the following methods: • ^[a]Log P value is determined by measurement of LC-UV, in an acidic range, with 0.1% formic acid in water and acetonitrile as eluent (linear gradient from 10% acetonitrile to 95% acetonitrile). • ^[b]Log P value is determined by measurement of LC-UV, in a neutral range, with 0.001 molar ammonium acetate solution in water and acetonitrile as eluent (linear gradient from 10% acetonitrile to 95% acetonitrile). • ^[c]Log P value is determined by measurement of LC-UV, in an acidic range, with 0.1% phosphoric acid and acetonitrile as eluent (linear gradient from 10% acetonitrile to 95% acetonitrile).
If more than one Log P value is available within the same method, all the values are given and separated by “+”.
Calibration was done with straight-chain alkan2-ones (with 3 to 16 carbon atoms) with known Log P values (measurement of Log P values using retention times with linear interpolation between successive alkanones). Lambda-max-values were determined using UV-spectra from 200 nm to 400 nm and the peak values of the chromatographic signals.

## CC=C(c1ccccc1F)C(O)(Cn1cnnn1)C1(Cl)CC1 (racemic) [Ia-en-04]
  LogP: 2.66^[a]

## CC=C(c1cccc(Cl)c1F)C(O)(Cn1cnnn1)C1(Cl)CC1 (racemic) [Ia-en-05]
  LogP: 3.00^[a]

## CC=C(c1cccc(F)c1F)C(O)(Cn1cnnn1)C1(Cl)CC1 (racemic) [Ia-en-06]
  LogP: 2.82^[a]

## CC=C(c1cccc(F)c1F)C(O)(Cn1cnnn1)C1(Cl)CC1 (racemic) [Ia-en-07]
  LogP: 2.75^[a]

## CC(c1cc(F)ccc1F)C(O)(Cn1cnnn1)C1(Cl)CC1 (single isomer, unassigned) [Ia-16]
  LogP: 2.66^[a]

## CC(c1cc(F)ccc1F)C(O)(Cn1cnnn1)C1(Cl)CC1 (single isomer, unassigned) [Ia-18]
  LogP: 2.92^[a]

## OC(Cc1cccc(Cl)c1F)(Cn1cnnn1)C1(Cl)CC1 (centres unmarked) [Ia-02]
  LogP: 2.72^[a]

## OC(Cc1cccc(F)c1F)(Cn1cnnn1)C1(Cl)CC1 (centres unmarked) [Ia-06]
  LogP: 2.46^[a]

## OC(Cc1ccccc1C(F)(F)F)(Cn1cnnn1)C1(Cl)CC1 (centres unmarked) [Ia-07]
  LogP: 3.02^[a]

## CC1(C(O)(Cc2ccccc2Cl)Cn2cnnn2)CC1 (centres unmarked) [Ia-08]
  LogP: 2.80^[a]

## CC1(C(O)(Cc2ccccc2Br)Cn2cnnn2)CC1 (centres unmarked) [Ia-09]
  LogP: 2.92^[a]

## CC1(C(O)(Cc2ccccc2)Cn2cnnn2)CC1 (centres unmarked) [Ia-10]
  LogP: 2.35^[a]

## CC1(C(O)(Cc2ccccc2C(F)(F)F)Cn2cnnn2)CC1 (centres unmarked) [Ia-11]
  LogP: 2.94^[a]

## Cc1ccccc1CC(O)(Cn1cnnn1)C1(C)CC1 (centres unmarked) [Ia-12]
  LogP: 2.75^[a]

## OC(Cc1c(F)cccc1F)(Cn1cnnn1)C1(Cl)CC1 (centres unmarked) [Ia-13]
  LogP: 2.52^[a]

## COc1ccccc1CC(O)(Cn1cnnn1)C1(Cl)CC1 (centres unmarked) [Ia-14]
  LogP: 2.73^[a]

## OC(Cc1cccc(Cl)c1Cl)(Cn1cnnn1)C1(Cl)CC1 (centres unmarked) [Ia-15]
  LogP: 3.19^[a]

## OC(Cc1ccccc1)(Cn1cnnn1)C1(F)CC1 (centres unmarked) [Ia-17]
  LogP: 2.08^[a]

## OC(Cc1ccccc1Cl)(Cn1cnnn1)C1(F)CC1 (centres unmarked) [Ia-19]
  LogP: 2.40^[a]

## OC(Cc1ccccc1Br)(Cn1cnnn1)C1(F)CC1 (centres unmarked) [Ia-21]
  LogP: 2.49^[a]

## OC(Cc1cccc(Br)c1)(Cn1cnnn1)C1(F)CC1 (centres unmarked) [Ia-23]
  LogP: 2.59^[a]

## OC(Cc1ccccc1Br)(Cn1cnnn1)C1(Cl)CC1 (centres unmarked) [Ia-24]
  LogP: 2.88^[a]

## CC(c1cccc(F)c1F)C(O)(Cn1cnnn1)C1(Cl)CC1 (centres unmarked) [Ia-25]
  LogP: 2.96^[a]

## COc1cccc(CC(O)(Cn2cnnn2)C2(F)CC2)c1 (centres unmarked) [Ia-26]
  LogP: 2.11^[a]

## COc1ccc(CC(O)(Cn2cnnn2)C2(F)CC2)cc1 (centres unmarked) [Ia-27]
  LogP: 2.08^[a]

## Cc1cccc(CC(O)(Cn2cnnn2)C2(F)CC2)c1 (centres unmarked) [Ia-28]
  LogP: 2.42^[a]

## OC(Cc1cc(Cl)ccc1F)(Cn1cnnn1)C1(Cl)CC1 (centres unmarked) [Ia-29]
  LogP: 2.86^[a]

## Cc1ccc(CC(O)(Cn2cnnn2)C2(C)CC2)cc1 (centres unmarked) [Ia-30]
  LogP: 2.73^[a]

## OC(Cc1cc(F)cc(F)c1)(Cn1cnnn1)C1(Cl)CC1 (centres unmarked) [Ia-31]
  LogP: 2.63^[a]

## OC(Cc1ccccc1OC(F)(F)F)(Cn1cnnn1)C1(Cl)CC1 (centres unmarked) [Ia-32]
  LogP: 3.06^[a]

## Cc1ccc(CC(O)(Cn2cnnn2)C2(F)CC2)cc1 (centres unmarked) [Ia-33]
  LogP: 2.44^[a]

## COc1ccc(CC(O)(Cn2cnnn2)C2(C)CC2)cc1 (centres unmarked) [Ia-34]
  LogP: 2.35^[a]

## OC(Cc1c(F)cc(F)cc1F)(Cn1cnnn1)C1(Cl)CC1 (centres unmarked) [Ia-35]
  LogP: 2.64^[a]

## Cc1ccc(F)c(CC(O)(Cn2cnnn2)C2(Cl)CC2)c1F (centres unmarked) [Ia-36]
  LogP: 2.90^[a]

## COC(Cc1ccccc1Cl)(Cn1cnnn1)C1(Cl)CC1 (centres unmarked) [Ia-37]
  LogP: 3.19^[a]

## OC(Cc1ccc(F)c(Cl)c1F)(Cn1cnnn1)C1(Cl)CC1 (centres unmarked) [Ia-38]
  LogP: 2.94^[a]

## OC(Cc1ccc(F)cc1Cl)(Cn1cnnn1)C1(Cl)CC1 (centres unmarked) [Ia-39]
  LogP: 2.90^[a]

## OC(Cc1ccc(Cl)cc1F)(Cn1cnnn1)C1(Cl)CC1 (centres unmarked) [Ia-40]
  LogP: 2.90^[a]

## OC(Cc1cccc(Br)c1F)(Cn1cnnn1)C1(Cl)CC1 (centres unmarked) [Ia-41]
  LogP: 2.92^[a]

## OC(Cc1cc(F)ccc1F)(Cn1cnnn1)C1(Cl)CC1 (centres unmarked) [Ia-42]
  LogP: 2.52^[a]

## OC(Cc1cc(F)cc(F)c1F)(Cn1cnnn1)C1(Cl)CC1 (centres unmarked) [Ia-43]
  LogP: 2.66^[a]

## OC(Cc1ccc(F)c(F)c1F)(Cn1cnnn1)C1(Cl)CC1 (centres unmarked) [Ia-44]
  LogP: 2.71^[a]

## Cc1ccc(F)c(CC(O)(Cn2cnnn2)C2(Cl)CC2)c1Cl (centres unmarked) [Ia-45]
  LogP: 3.23^[a]

## COc1ccc(F)c(CC(O)(Cn2cnnn2)C2(Cl)CC2)c1F (centres unmarked) [Ia-46]
  LogP: 2.51^[a]

## OC(Cc1cccc(Cl)c1)(Cn1cnnn1)C1(Cl)CC1 (centres unmarked) [Ia-47]
  LogP: 2.82^[a]

## COc1ccc(CC(O)(Cn2cnnn2)C2(Cl)CC2)c(F)c1F (centres unmarked) [Ia-48]
  LogP: 2.59^[a]

## COc1cc(F)c(CC(O)(Cn2cnnn2)C2(Cl)CC2)c(F)c1 (centres unmarked) [Ia-49]
  LogP: 2.69^[a]

## COc1c(F)ccc(CC(O)(Cn2cnnn2)C2(Cl)CC2)c1F (centres unmarked) [Ia-50]
  LogP: 2.62^[a]

## OC(Cc1cc(F)c(F)cc1F)(Cn1cnnn1)C1(Cl)CC1 (centres unmarked) [Ia-51]
  LogP: 2.66^[a]

## OC(Cc1ccc(F)c(Cl)c1)(Cn1cnnn1)C1(Cl)CC1 (centres unmarked) [Ia-52]
  LogP: 2.90^[a]

## OC(Cc1ccc(F)cc1F)(Cn1cnnn1)C1(Cl)CC1 (centres unmarked) [Ia-53]
  LogP: 2.57^[a]

## OC(Cc1c(F)ccc(F)c1F)(Cn1cnnn1)C1(Cl)CC1 (centres unmarked) [Ia-54]
  LogP: 2.60^[a]

## Cc1ccc(CC(O)(Cn2cnnn2)C2(Cl)CC2)c(F)c1F (centres unmarked) [Ia-55]
  LogP: 2.92^[a]

## OC(Cc1ccc(F)c(F)c1)(Cn1cnnn1)C1(Cl)CC1 (centres unmarked) [Ia-56]
  LogP: 2.64^[a]

## Cc1ccc(CC(O)(Cn2cnnn2)C2(Cl)CC2)cc1 (centres unmarked) [Ia-57]
  LogP: 2.78^[a]

## COc1ccc(CC(O)(Cn2cnnn2)C2(Cl)CC2)cc1 (centres unmarked) [Ia-58]
  LogP: 2.40^[a]

## OC(Cc1cncc(F)c1)(Cn1cnnn1)C1(Cl)CC1 (centres unmarked) [Ia-59]
  LogP: 1.53^[a]

## COc1cccc(CC(O)(Cn2cnnn2)C2(Cl)CC2)c1 (centres unmarked) [Ia-60]
  LogP: 2.42^[a]

## COc1cccc(CC(O)(Cn2cnnn2)C2(C)CC2)c1 (centres unmarked) [Ia-61]
  LogP: 2.37^[a]

## OC(Cc1cccc(Br)c1)(Cn1cnnn1)C1(Cl)CC1 (centres unmarked) [Ia-62]
  LogP: 2.92^[a]

## CC1(C(O)(Cc2cccc(Br)c2)Cn2cnnn2)CC1 (centres unmarked) [Ia-63]
  LogP: 2.84^[a]

## Cc1cccc(CC(O)(Cn2cnnn2)C2(Cl)CC2)c1 (centres unmarked) [Ia-64]
  LogP: 2.78^[a]

## Cc1cccc(CC(O)(Cn2cnnn2)C2(C)CC2)c1 (centres unmarked) [Ia-65]
  LogP: 2.73^[a]

## Cc1ccccc1CC(O)(Cn1cnnn1)C1(Cl)CC1 (centres unmarked) [Ia-66]
  LogP: 2.77^[a]

## OC(Cc1ccc(Br)cc1F)(Cn1cnnn1)C1(Cl)CC1 (centres unmarked) [Ia-67]
  LogP: 3.23^[a]

## CC1(C(O)(Cc2ccccc2F)Cn2cnnn2)CC1 (centres unmarked) [Ia-68]
  LogP: 2.45^[a]

## OC(Cc1cccc(F)c1)(Cn1cnnn1)C1(Cl)CC1 (centres unmarked) [Ia-69]
  LogP: 2.54^[a]

## COC(Cc1ccccc1Br)(Cn1cnnn1)C1(Cl)CC1 (centres unmarked) [Ia-70]
  LogP: 3.23^[a]

## OC(Cc1cccc(C(F)(F)F)c1F)(Cn1cnnn1)C1(Cl)CC1 (centres unmarked) [Ia-71]
  LogP: 3.04^[a]

## OC(Cc1c(F)cccc1Cl)(Cn1cnnn1)C1(Cl)CC1 (centres unmarked) [Ia-72]
  LogP: 2.90^[a]

## OC(Cc1ccncc1Cl)(Cn1cnnn1)C1(Cl)CC1 (centres unmarked) [Ia-73]
  LogP: 1.65^[a]

## OC(Cc1cncc(Cl)c1)(Cn1cnnn1)C1(Cl)CC1 (centres unmarked) [Ia-74]
  LogP: 1.86^[a]

## OC(Cc1c(F)cc(Cl)cc1F)(Cn1cnnn1)C1(Cl)CC1 (centres unmarked) [Ia-75]
  LogP: 2.98^[a]

## OC(Cc1ccccc1C(F)(F)F)(Cn1cnnn1)C1(F)CC1 (centres unmarked) [Ia-76]
  LogP: 2.71^[a]

## C=C(c1cc(F)ccc1F)C(O)(Cn1cnnn1)C1(Cl)CC1 (centres unmarked) [Ia-en-01]
  LogP: 2.54^[a]

## C=C(c1ccccc1)C(O)(Cn1cnnn1)C1(Cl)CC1 (centres unmarked) [Ia-en-03]
  LogP: 2.46^[a]

## C=C(c1cccc(F)c1F)C(O)(Cn1cnnn1)C1(Cl)CC1 (centres unmarked) [Ia-en-08]
  LogP: 2.57^[a]

## C=C(c1ccccc1Cl)C(O)(Cn1cnnn1)C1(Cl)CC1 (centres unmarked) [Ia-en-09]
  LogP: 2.71^[a]

## C=C(c1cccc(Cl)c1F)C(O)(Cn1cnnn1)C1(Cl)CC1 (centres unmarked) [Ia-en-10]
  LogP: 2.82^[a]

## OC(Cc1cncc(Cl)c1)(Cn1ncnn1)C1(Cl)CC1 (centres unmarked) [Ib-01]
  LogP: 2.13^[a]

## OC(Cc1cccc(F)c1F)(Cn1ncnn1)C1(Cl)CC1 (centres unmarked) [Ib-03]
  LogP: 2.82^[a]

## OC(Cc1ccccc1Cl)(Cn1ncnn1)C1(Cl)CC1 (centres unmarked) [Ib-04, 2-(1-chlorocyclopropyl)-1-(2-chlorophenyl)-3-(tetrazol-2-yl)propan-2-ol]
Method [a]: LC-UV, acidic range, 0.1% formic acid in water and acetonitrile as eluent
  chromatographic logP: 3.2

## OC(Cc1cccc(Cl)c1F)(Cn1ncnn1)C1(Cl)CC1 (centres unmarked) [Ib-06]
  LogP: 3.19^[a]

## OC(Cc1c(F)cc(F)cc1F)(Cn1ncnn1)C1(Cl)CC1 (centres unmarked) [Ib-07]
  LogP: 3.09^[a]

## OC(Cc1ccc(Cl)cc1F)(Cn1ncnn1)C1(Cl)CC1 (centres unmarked) [Ib-08]
  LogP: 3.37^[a]

## Cc1ccc(F)c(CC(O)(Cn2ncnn2)C2(Cl)CC2)c1F (centres unmarked) [Ib-09]
  LogP: 3.37^[a]

## OC(Cc1ccc(F)c(F)c1F)(Cn1ncnn1)C1(Cl)CC1 (centres unmarked) [Ib-10]
  LogP: 3.11^[a]

## OC(Cc1cc(F)cc(F)c1F)(Cn1ncnn1)C1(Cl)CC1 (centres unmarked) [Ib-11]
  LogP: 3.06^[a]

## OC(Cc1ccc(F)c(Cl)c1F)(Cn1ncnn1)C1(Cl)CC1 (centres unmarked) [Ib-12]
  LogP: 3.37^[a]

## COc1ccc(CC(O)(Cn2ncnn2)C2(Cl)CC2)c(F)c1F (centres unmarked) [Ib-13]
  LogP: 2.94^[a]

## COc1c(F)ccc(CC(O)(Cn2ncnn2)C2(Cl)CC2)c1F (centres unmarked) [Ib-14]
  LogP: 3.00^[a]

## COc1cc(F)c(CC(O)(Cn2ncnn2)C2(Cl)CC2)c(F)c1 (centres unmarked) [Ib-15]
  LogP: 3.11^[a]
